Measured values from a melting point compilation (Tetko et al.; mined from patent text by program, amines drawn as free bases though some values may be those of a salt).

SMILES | melting point
CNc1c(OC)cc(C(=O)CS(C)(=O)=O)cc1OC | 98 to 99 °C
CC(=O)NCc1ccc2c(c1)[C@@H](N1CCCC1=O)[C@H](O)C(C)(C)O2 (relative stereo) | 206 to 208 °C
CC(=O)Nc1cccc2ccc(O)cc12 | 161 to 162 °C
Cc1ccc(S(=O)(=O)NOC(C)C)cc1 | 104 °C
CCN(CC)c1ccc([N+](=O)[O-])cn1 | 75 to 76 °C
COc1cc(Br)c(C(C)=O)cc1O | 110 to 111 °C
CC1(C)CN(C2CC3(C)C(CCC4C5CCC(C#N)C5(C)CCC43)CC2O)CCO1 (stereo not given) | 170 to 173 °C
COc1cc2nc(N)nc(-c3ccc(O)c(F)c3)c2cc1OC | 268 to 270 °C
Cc1sc(C(=O)O)cc1NC(=O)Cc1ccccc1 | 249 to 250 °C
O=Cc1c(-c2ccccc2Cl)ccc2c1OCO2 | 84 to 86 °C
O=c1c2ccccc2n(CCCOC2CCCCO2)c2ccccc12 (stereo not given) | 140 to 142 °C
COC(=O)c1nc2cc(C)ccc2c(O)c1C(=O)OC | 209 to 211 °C
CC(C)Oc1ccc(Nc2nc(=O)n(C(C)C)c(=O)n2Cc2ccc(Cl)cc2)cc1Cl | 167 °C
CS(=O)(=O)c1ccc(-c2[nH]nc(C(=O)CCCO[N+](=O)[O-])c2-c2ccc(C#N)cc2)cc1 | 148 to 149 °C
COC(=O)Nc1ccc(CN2OCC(C)(C)C2=O)c(Cl)c1 | 165 to 167 °C
CCOC(=O)c1cn(CC)c2nc(OC)c([N+](=O)[O-])cc2c1=O | 224 to 227 °C
O=C1CNC(c2cccc(Cl)c2)=NN1 | 228 to 230 °C
COc1cc(OC)nc(NC(=O)NS(=O)(=O)c2c3c(Cl)cccc3nn2C)n1 | 171 to 172 °C
CCC(C(C)=CC(CNC(=O)Cc1n[nH]c(=O)c2ncccc12)=NO)[N+](=O)[O-] (stereo not given) | 143 to 145 °C
C(=Cc1ccc2c(c1)Sc1ccccc1N2c1ccccc1)c1ccc(-c2ccc(C=Cc3ccc4c(c3)Sc3ccccc3N4c3ccccc3)cc2)cc1 | 278 to 290 °C
CCOP(=O)(NCc1cccc(-c2nc(=O)c3ccccc3s2)n1)OCC | 135 to 136 °C
CCCCN(C)C(=NC#N)NCc1cccnc1 | 65 to 69 °C
COc1ccc(C2COc3cc(OC(C)=O)c(OC(C)=O)cc3C2)cc1 (stereo not given) | 104 °C
COC(=O)c1ccc(Br)cc1CSC | 79.3 °C
C=Cc1cc2ccc(-c3ccc(C(=O)OC)cc3)cc2cc1C12CC3CC(CC(C3)C1)C2 | 221 to 222 °C
CC(C(=O)O)c1ccccc1OS(C)(=O)=O (stereo not given) | 94 to 96 °C
O=C(Cc1ccc(OCc2ccccc2)cc1OCc1ccccc1)N1CCN(Cc2ccccc2)CC1 | 104 to 106 °C
COc1ccc(N2CCN(Cc3n[nH]c4cc(Cl)ccc34)CC2)cc1 | 182 to 184 °C

SMILES | melting point
C#CCOc1ccc(-c2nc3cnccc3[nH]2)c(OC)c1 | 210 °C
Nc1ccc2ccccc2c1-c1c(P(c2ccccc2)c2ccccc2)ccc2ccccc12 | 105 °C
CC(=S)Nc1ccc[nH]1 | 93 to 94 °C
CCCCNc1cccc(O)c1 | 35 °C
COC(=O)[C@H](O)[C@@H](NC(=O)OC(C)(C)C)c1ccccc1 | 130 to 132 °C
Cc1ccc(S(=O)(=O)O[C@@H]2C[C@@H](C(=O)NC(C)(C)C)N(C(=O)OC(C)(C)C)C2)cc1 | 125 to 127 °C
CN(C)C(=O)C1Cc2c(c(Cl)cc(F)c2N2C(=O)C3=C(CCCC3)C2=O)O1 (stereo not given) | 190 to 193 °C
COc1ccc2c(c1)C(CCCNC(C)=O)CCC2 (stereo not given) | 71 to 73 °C
CSC(=O)Cn1c(=O)sc2ccccc21 | 146 to 147 °C
Cc1c(O)ccc(C=O)c1O | 150 °C
CN(CCNCc1ccccc1)Cc1ccccc1 | 83 to 84 °C
Cc1ccc(C(=O)C2CCN(CCc3c[nH]c4ccccc34)CC2)cc1C | 172 to 173 °C
CNc1nc(Cl)c(OC(F)F)c(N(C)C)n1 | 127 to 130 °C
CC(=O)NC[C@H]1CN(c2ccc(Br)cn2)C(=O)O1 | 166 to 168 °C
O=C1Nc2ccc(Cl)cc2C2(c3cccs3)OCCN12 (stereo not given) | 193 to 194 °C
O=C(O)c1cnc(C(=O)O)c2ccccc12 | 216 °C
C[C@H]1C[C@@](O)(c2cccc(Sc3ccc4c(c3)CC(=O)N4C)c2)CCO1 | 110 to 111 °C
O=C(NCC12CC3CC(CC(C3)C1)C2)c1cc([N+](=O)[O-])ccc1Cl | 178 °C
CCCCCCCCCCCCCCCCC(=O)Nc1ccc(O)cc1 | 137 °C
CC1NC(=O)NN=C1c1ccc(NC(=O)CN2CCOCC2)cc1 (stereo not given) | 244 to 247 °C
CC(C)(C)OC(=O)NCC(=O)SCC(Cc1ccccc1)C(=O)Nc1cccc(C(=O)O)c1 (stereo not given) | 76 to 80 °C
COCCOCCNc1ncnc2c1cnn2-c1cc(C)cc(C)c1 | 90.4 °C
CC(=O)CS(=O)(=O)N(C)C | 47 to 49 °C
C[C@@H]1C(=O)C=CN2c3ccccc3CC[C@@H]12 (relative stereo) | 148 to 150 °C
Brc1ccc2ccsc2c1 | 53 to 55 °C
CNC(=C[N+](=O)[O-])NCCSCc1ccccn1 | 112 to 113 °C
CNc1nc2cccc(C(=O)O)c2s1 | > 330 °C

The next lines start with the values.

melting point | SMILES
171 to 172 °C | COc1ccc(-c2ccc(C(=O)Nc3ccc4cc(CN5CCCCCC5)cnc4c3C)c(F)c2)cc1
149 to 150 °C | O=C(O)[C@H](Cc1ccccc1)NC(=S)Cc1ccc([N+](=O)[O-])cc1
260 to 261 °C | NS(=O)(=O)c1ccc(-n2nc(C(F)(F)F)cc2-c2nc3ccc(F)cc3s2)cc1
170 to 172 °C | O=C1NC(=O)C(Cc2ccc(OCCN3c4ccccc4Oc4ccccc43)cc2)S1 (stereo not given)
196 to 199 °C | O=C(NO)c1ccc2c(c1)CN(C(=O)OCc1cccnc1)C2
312 to 313 °C | COc1ccccc1C1=Nc2ccc(N3CCCC3)cc2C(=O)C1
272 to 273 °C | C1=C(c2ccccc2)CCN(c2nsc3ccccc23)C1
106 to 107 °C | COc1ccc2oc(-c3ccccc3)c(CC#N)c2c1
119 to 124 °C | COc1ccc(OCc2ccccn2)c(/C=C/c2cc(/C=C/c3ccc4cc[nH]c4c3)n[nH]2)c1
196 to 198 °C | O=C(O)Cc1ccc(NC(=O)C(COc2ccc(Cl)cc2)NS(=O)(=O)c2ccc(I)cc2)cc1 (racemic)
160 to 162 °C | COc1nc(NC(=O)Nc2ccccc2OC)nc(N(CCC(=O)O)Cc2cccc(C)c2)n1
204 °C | CCc1nc(-c2ccc(N3CCN(C(=O)c4ccccc4C(F)(F)F)CC3)nn2)no1
166 to 167 °C | O=C(O)CCc1ccc(OCc2cccc(-c3cncnc3)c2)cc1
192 to 193 °C | CC(=O)NS(=O)(=O)c1ccc(-n2cc(C)cc2-c2ccc(C)c(C)c2)cc1
184 to 186 °C | CS(=O)(=O)c1nc(Cl)cc(Nc2ccc(C(F)(F)F)cc2)n1
250 °C | O=C1CCC(c2ccccc2)(c2ccccc2)[C@@H]2CN(C(=O)Cc3c[nH]c4ccccc34)C[C@H]12 (racemic)
143 °C | COc1ccc(C(=O)N2CCCC(=O)c3ccc(Cl)cc3CCC2=O)cc1
267 to 268 °C | Cc1ccc(C(=O)Nc2c(NC(=O)CN3CCN(c4ncccn4)CC3)ccc3c2C(=O)c2ccccc2C3=O)cc1
138 to 140 °C | O=C(Nc1ccc(-n2nc(C(F)(F)F)cc2-c2cccnc2)cc1)c1ccccc1F
194 to 195 °C | FC(F)(F)c1ccc(-c2cc(Oc3cccc4ccncc34)ncn2)cc1
210 °C | O=C(O)c1ccccc1-c1ccc(Cc2nc(-c3ccccc3)nc3ccccc23)cc1
145 to 146 °C | FC(F)(F)c1cccc(N2CCN(Cc3cn4cc(Cl)ccc4n3)CC2)c1
162 to 164 °C | COCCn1cc(-c2ccc3nnn(Cc4ccc5ncccc5c4)c3n2)cn1

melting point | SMILES
208 to 211 °C | Cc1cnn(-c2ccccc2)c1-c1nn(-c2cccc(C(F)(F)F)c2)ccc1=O
211 °C | O=C(O)c1c(CNS(=O)(=O)c2cccc(Cl)c2)nn(-c2ccc(Cl)cc2Cl)c1-c1ccc(Cl)cc1
147 °C | Oc1ccc2c(c1)CCCC(c1ccccc1)=C2c1ccc(OCCCCCSCc2ccc(C(F)(F)F)cc2)cc1
172 to 173 °C | COC(=O)c1cc(NC(=O)COc2ccccc2)c2cc(Cc3ccc(F)cc3)cnc2c1O
168 to 170 °C | O=C(O)COc1cccc2c1CCc1sc(S(=O)(=O)CC(c3ccccc3)c3ccccc3)nc1-2
> 250 °C | O=C(O)c1ccc(=O)n(NC(=O)c2cccnc2)c1
108 to 109 °C | O=Cc1nn(-c2ccccc2)c2c1CCC2
138 to 140 °C | O=C1CCCc2nc3ccccc3c(NCc3cccc(Cl)c3)c21
206 to 207 °C | CCCc1nc2c(N)nc3ccccc3c2n1Cc1cc(-c2cccnc2)on1
155 to 157 °C | COC(=O)c1nn(-c2ccccc2F)cc(OC)c1=O
144 to 146 °C | O=C(O)CN(Cc1ccccc1)C(=O)CCc1nc2c(F)c(F)cc(F)c2s1
218 to 222 °C | CC(=O)CCc1cc(F)c2ncc(C(=O)NCc3ccc(Cl)cc3)c(O)c2c1
229 to 233 °C | Cc1cccc(-c2n[nH]cc2-c2ccc(F)c(-c3c[nH]cn3)c2)n1
117 to 119 °C | CN1CCC(c2nn(-c3ccccc3C#N)c3ccccc23)CC1
120 to 122 °C | OC(c1ccc(Cl)cc1)(c1ccccc1F)C1CO1 (stereo not given)
234 to 235 °C | Cn1c(=O)c2cccnc2n(-c2cccc([N+](=O)[O-])c2)c1=O
186 to 187 °C | COCCc1cc(N)n2nc(SC)c(S(=O)(=O)c3ccccc3)c2n1
268 to 272 °C | CN1CCN(c2ccnc3c(NC(=O)c4c(Cl)cccc4Cl)cc(F)cc23)C1=O
82 to 84 °C | c1ccc(Cc2ccc(-c3ccccc3)[nH]2)cc1
86 °C | CCOCC(O)(c1cccnc1)C(C)c1ccc(Cl)cc1Cl (stereo not given)
302 °C | Cc1cc(NC(=O)c2cc(C#N)cc(C)n2)ccn1
217 to 220 °C | O=C(CCC(F)(F)F)c1c(O)c2cccnc2n(-c2ccccc2)c1=O
